This is an account of results in PubChem BioAssay AID1259411 (Chemical Carcinogenesis Research Information System (CCRIS), 2018).

The source made the active and inactive calls. How the calls were made is not given here.

In this data set the test system is rodent carcinogenicity bioassays, tumor incidence. The experiment in a line: CCRIS carcinogenicity studies. The procedure, abridged:
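Archive of carcinogenicity, mutagenicity, tumor promotion and tumor inhibition results drawn from journals, NCI reports and other sources, expert-reviewed; covers 1985-2011 and is no longer updated.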

As for `CC(=O)Nc1ccc(O)cc1`, the carcinogen call was “inactive; negative” (Species: MOUSE, Strain/Sex: B6C3F1/FEMALE, Route: ORAL, Dose: 0, 600, 3000, 6000 PPM IN DIET FOR 103 WK (STUDY DURATION: 106 WK), Dose: 0, 600, 3000, 6000 PPM IN DIET FOR 103 WK (STUDY DURATION: 106 WK)); “inactive; negative” (Species: MOUSE, Strain/Sex: B6C3F1/MALE, Route: ORAL, Dose: 0, 600, 3000, 6000 PPM IN DIET FOR 103 WK (STUDY DURATION: 106 WK), Dose: 0, 600, 3000, 6000 PPM IN DIET FOR 103 WK (STUDY DURATION: 106 WK)); “inactive; negative” (Species: MOUSE, Strain/Sex: B6C3F1/MALE, Route: ORAL, Dose: 0, 5000, 10000 PPM IN DIET BEGINNING AT 6 WK OF AGE AND CONTINUING FOR 70 WK (STUDY DURATION: 72 WK), Dose: 0, 5000, 10000 PPM IN DIET BEGINNING AT 6 WK OF AGE AND CONTINUING FOR 70 WK (STUDY DURATION: 72 WK)); “active; positive” (Species: MOUSE, Strain/Sex: STRAIN-IF/FEMALE, Route: ORAL, Dose: 0, 0.5, 1% IN DIET FOR 18 MO (STUDY DURATION: 18 MO), Dose: 0, 0.5, 1% IN DIET FOR 18 MO (STUDY DURATION: 18 MO), Tumor Site: Type of Lesion: LIVER: HEPATOCELLULAR CARCINOMA OR ADENOMA); “active; positive” (Species: MOUSE, Strain/Sex: STRAIN-IF/MALE,FEMALE, Route: ORAL, Dose: 0.5, 1.0% IN DIET FOR 18 MO, Tumor Site: Type of Lesion: LIVER: HEPATOCELLULAR ADENOMA, CARCINOMA); “active; positive” (Species: MOUSE, Strain/Sex: STRAIN-IF/MALE, Route: ORAL, Dose: 0, 0.5, 1% IN DIET FOR 18 MO (STUDY DURATION: 18 MO), Dose: 0, 0.5, 1% IN DIET FOR 18 MO (STUDY DURATION: 18 MO), Tumor Site: Type of Lesion: LIVER: HEPATOCELLULAR CARCINOMA, HEPATOCELLULAR ADENOMA OR CARCINOMA). Moreover, the carcinogen call reads like this: (Species: RAT, Strain/Sex: F344/FEMALE, Route: ORAL, Dose: 0, 0.65, 1.3% IN DIET FOR 104 WK (STUDY DURATION: 130 WK), Dose: 0, 0.65, 1.3% IN DIET FOR 104 WK (STUDY DURATION: 130 WK)) “inactive; negative”; (Species: RAT, Strain/Sex: F344/FEMALE, Route: ORAL, Dose: 0, 600, 3000, 6000 PPM IN DIET FOR 103 WK (STUDY DURATION: 106 WK), Dose: 0, 600, 3000, 6000 PPM IN DIET FOR 103 WK (STUDY DURATION: 106 WK), Tumor Site: Type of Lesion: MULTIPLE ORGANS: MONONUCLEAR CELL LEUKEMIA) “equivocal”; (Species: RAT, Strain/Sex: F344/MALE, Route: ORAL, Dose: 0, 0.45, 0.9% IN DIET FOR 104 WK (STUDY DURATION: 130 WK), Dose: 0, 0.45, 0.9% IN DIET FOR 104 WK (STUDY DURATION: 130 WK)) “inactive; negative”; (Species: RAT, Strain/Sex: F344/MALE, Route: ORAL, Dose: 0, 600, 3000, 6000 PPM IN DIET FOR 103 WK (STUDY DURATION: 106 WK), Dose: 0, 600, 3000, 6000 PPM IN DIET FOR 103 WK (STUDY DURATION: 106 WK)) “inactive; negative”.

For `ClC=C(Cl)Cl`, the carcinogen call runs as follows: (Species: MOUSE, Strain/Sex: B6C3F1/FEMALE, Route: GAVAGE, Dose: 0, 869, 1739 MG/KG/D, TWA, Dose: 0, 869, 1739 MG/KG/D, TWA, Tumor Site: Type of Lesion: LIVER: HEPATOCELLULAR CARCINOMA) “active; positive”; (Species: MOUSE, Strain/Sex: B6C3F1/FEMALE, Route: GAVAGE, Dose: 0, 1000 MG/KG IN CORN OIL 5 D/WK FOR 103 WK (STUDY DURATION: 107 WK), Tumor Site: Type of Lesion: LIVER: ADENOMA, CARCINOMA) “active; positive”; (Species: MOUSE, Strain/Sex: B6C3F1/FEMALE, Route: INHALATION, Dose: 0, 100, 300, 600 PPM 7 HR/D 5 D/WK FOR 78 WK (STUDY DURATION: LIFETIME), Dose: 0, 100, 300, 600 PPM 7 HR/D 5 D/WK FOR 78 WK (STUDY DURATION: LIFETIME), Tumor Site: Type of Lesion: LUNG: TUMOR) “active; positive”; (Species: MOUSE, Strain/Sex: B6C3F1/MALE, Route: GAVAGE, Dose: 0, 1000 MG/KG IN CORN OIL 5 D/WK FOR 103 WK (STUDY DURATION: 107 WK), Tumor Site: Type of Lesion: LIVER: ADENOMA, CARCINOMA) “active; positive”; (Species: MOUSE, Strain/Sex: B6C3F1/MALE, Route: GAVAGE, Dose: 0, 1169, 2339 MG/KG/D, TWA, Dose: 0, 1169, 2339 MG/KG/D, TWA, Tumor Site: Type of Lesion: LIVER: HEPATOCELLULAR CARCINOMA) “active; positive”; (Species: MOUSE, Strain/Sex: B6C3F1/MALE, Route: INHALATION, Dose: 0, 100, 300, 600 PPM 7 HR/D 5 D/WK FOR 78 WK (STUDY DURATION: LIFETIME), Dose: 0, 100, 300, 600 PPM 7 HR/D 5 D/WK FOR 78 WK (STUDY DURATION: LIFETIME)) “inactive; negative”. The carcinogen call is “inactive; negative” (Species: MOUSE, Strain/Sex: ICR/MALE, FEMALE, Route: GAVAGE, Dose: 0, 10 MG/KG IN CORN OIL 5 D/WK FOR 18 MO (DOSES REDUCED BY FACTOR OF 2 FROM 40TH WEEK)(STUDY DURATION: 24 MO)); “inactive; negative” (Species: MOUSE, Strain/Sex: SWISS/FEMALE, Route: INHALATION, Dose: 0, 100, 300, 600 PPM 7 HR/D 5 D/WK FOR 78 WK (STUDY DURATION: LIFETIME), Dose: 0, 100, 300, 600 PPM 7 HR/D 5 D/WK FOR 78 WK (STUDY DURATION: LIFETIME)); “active; positive” (Species: MOUSE, Strain/Sex: SWISS/MALE, Route: INHALATION, Dose: 0, 100, 300, 600 PPM 7 HR/D 5 D/WK FOR 78 WK (STUDY DURATION: LIFETIME), Dose: 0, 100, 300, 600 PPM 7 HR/D 5 D/WK FOR 78 WK (STUDY DURATION: LIFETIME), Tumor Site: Type of Lesion: LUNG: TUMOR, LIVER: HEPATOMA); “inactive; negative” (Species: RAT, Strain/Sex: F344/FEMALE, Route: GAVAGE, Dose: 0, 500, 1000 MG/KG IN CORN OIL 5 D/WK FOR 103 WK (STUDY DURATION: 107 WK), Dose: 0, 500, 1000 MG/KG IN CORN OIL 5 D/WK FOR 103 WK (STUDY DURATION: 107 WK)); “inactive; negative” (Species: RAT, Strain/Sex: SPRAGUE-DAWLEY/FEMALE, Route: GAVAGE, Dose: 0, 50, 250 MG/KG BW IN OLIVE OIL 1/D 4-6 D/WK FOR 52 WK (STUDY DURATION: LIFETIME), Dose: 0, 50, 250 MG/KG BW IN OLIVE OIL 1/D 4-6 D/WK FOR 52 WK (STUDY DURATION: LIFETIME), Tumor Site: Type of Lesion: [BRAIN WAS ONLY SITE EVALUATED]); “inactive; negative” (Species: RAT, Strain/Sex: SPRAGUE-DAWLEY/FEMALE, Route: INHALATION, Dose: 0, 100, 300, 600 PPM 7 HR/D 5 D/WK FOR 104 WK (STUDY DURATION: LIFETIME), Dose: 0, 100, 300, 600 PPM 7 HR/D 5 D/WK FOR 104 WK (STUDY DURATION: LIFETIME)). In addition, the carcinogen call (Species: RAT, Strain/Sex: SPRAGUE-DAWLEY/MALE, Route: GAVAGE, Dose: 0, 50, 250 MG/KG BW IN OLIVE OIL 1/D 4-6 D/WK FOR 52 WK (STUDY DURATION: LIFETIME), Dose: 0, 50, 250 MG/KG BW IN OLIVE OIL 1/D 4-6 D/WK FOR 52 WK (STUDY DURATION: LIFETIME), Tumor Site: Type of Lesion: [BRAIN WAS ONLY SITE EVALUATED]) was “inactive; negative” and the carcinogen call (Species: RAT, Strain/Sex: SPRAGUE-DAWLEY/MALE, Route: INHALATION, Dose: 0, 100, 300, 600 PPM 7 HR/D 5 D/WK FOR 104 WK (STUDY DURATION: LIFETIME), Dose: 0, 100, 300, 600 PPM 7 HR/D 5 D/WK FOR 104 WK (STUDY DURATION: LIFETIME), Tumor Site: Type of Lesion: TESTIS: LEYDIG CELL TUMOR) was “active; positive”.

Take `C=Cc1ccccn1`: the carcinogen call (Species: MOUSE, Strain/Sex: STRAIN-A/FEMALE, Route: INTRAPERITONEAL, Dose: 0, 10 UMOL IN 0.1 ML OLIVE OIL 3/WK FOR 20 DOSES (TOTAL DOSE: 200 UMOL) (STUDY DURATION: 27 WK)) was “inactive; negative”.

As for `CCCN(COC(C)=O)N=O`, the carcinogen call (Species: RAT, Strain/Sex: F344/FEMALE, Route: SUBCUTANEOUS, Dose: 6.1 MG/KG 1/WK FOR 10 WK, Tumor Site: Type of Lesion: INJECTION SITE: MALIGNANT FIBROUS HISTIOCYTOMA, LUNG: ADENOMA, ADENOCARCINOMA OR SQUAMOUS CELL CARCINOMA, THYROID GLAND:, Tumor Site: Type of Lesion: INJECTION SITE: MALIGNANT FIBROUS HISTIOCYTOMA, LUNG: ADENOMA, ADENOCARCINOMA OR SQUAMOUS CELL CARCINOMA, THYROID GLAND:) was “active; positive” and the carcinogen call (Species: RAT, Strain/Sex: F344/MALE, Route: SUBCUTANEOUS, Dose: 6.1 MG/KG 1/WK FOR 10 WK, Tumor Site: Type of Lesion: INJECTION SITE: MALIGNANT FIBROUS HISTIOCYTOMA, LUNG: ADENOMA, ADENOCARCINOMA OR SQUAMOUS CELL CARCINOMA) was “active; positive”.
